Source: US7632817B2, “Peptide decoys for the preparation of medicaments intended for the prevention or treatment of autoimmune pathologies or disorders linked to the appearance of antibodies directed against exogenous proteins” (Centre National de la Recherche Scientifique, priority 2001, dated 2009)
Where no end group is shown, it is not given here.

How the values were obtained:
[1] = tested on: 2C11 antibody; assay: Bethesda functional coagulation test: neutralization of the inhibiting activity of 2C11 by peptides; type: biochemical, human; conditions: for neutralization of the inhibiting activity of 2C11 (in words): 2C11 3.5 nM
From the text: This functional test (Kasper, C. K. & Pool, J. G. (1975) Letter: Measurement of mild factor VIII inhibitors in Bethesda units, Thromb Diath Haemorrh. 34, 875-6) consists of measuring the time necessary for a mixture composed of different coagulation factors (FIXa, FVIII, phospholipides, calcium etc.) in order to coagulate completely. The inhibiting effect of an antibody is characterized in such a test by an extension of the coagulation time, the inhibiting ability of the antibody becomes greater as the extension of the coagulation time increases. The inhibiting character of an antibody is expressed in Bethesda units, which corresponds to the reciprocal concentration of antibodies in order to neutralize 50% of the coagulant activity of the FVIII. In contrast, the neutralizing effect of the peptides is translated by a return to the initial coagulation time obtained in the absence of inhibitor.
The functional test followed is derived from the abovementioned test described by Kasper. The anti-FVIII monoclonal antibodies are diluted in an 0.05 M imidazole buffer, pH 7.3. An equal volume of this preparation (250 μl) with normal plasma buffered in imidazole (0.1 M, pH 7.4) are mixed and incubated for 2 hours at 37° C. Similarly, normal plasma buffered in imidazole is mixed with a non-specific antibody which constitutes the control. The inhibiting activity of an antibody is read from a semi-logarithmic graph representing the correlation between the residual activity of the FVIII and the inhibiting activity.
This mixture is then treated as above.
Firstly, the Inventors evaluated in a functional coagulation test (Bethesda test) the ability of peptide 107 to restore the procoagulant activity of FVIII in the presence of 2C11. FIG. 2 depicts the dose-dependent neutralization of the inhibiting activity of 2C11 by peptide 107. […] However, higher peptide concentrations are necessary in order to achieve an effectiveness similar to that of peptide 107 (data not shown).
FIG. 2 represents the evolution of the activity of factor VIII, evaluated by the Bethesda test, in the presence of 3.5 nM of 2C11 antibody as a function of peptide concentration. The 2C11 antibody was incubated overnight at 4° C. in the presence of a control peptide or peptide 107 (SCHAWSNRRTCR) (SEQ ID NO: 10) in variable concentration. The factor VIII was then incubated for 2 hours at 37° C. with these peptide-antibody mixtures or with peptide 107 alone, then its residual activity was measured with a coagulometer, in one stage.

[2] = tested on: 2C11 antibody (binding to factor VIII); assay: ELISA: inhibition of binding of 2C11 antibody to immobilized FVIII by soluble peptides; design: species or system human
Experimental: The FVIII is immobilized on the ON plate at 4° C. In parallel, the inhibitor antibody is preincubated with its epitope peptide(s) in the ON range at 4° C. in 0.1% PBS-T-2% milk. After saturation for 1 hour with 0.1% PBS-T-2% milk, the Ab-peptide mixtures are incubated with the immobilized FVIII for 2 hours at 37° C. Between each of these incubations, 3 washings with 0.1% PBS-T are carried out except after the saturation. Detection of the FVIII-Ab complex is achieved by a mouse or human anti-IgG coupled to peroxidase diluted to 1:3000 incubated for 1 hour at 37° C. After 5 washings with 0.1% PBS-T, the peroxidase substrate (OPD) is added. The reaction takes place for 30 minutes in the dark then measurement of the absorbance is carried out at 450 nm. After stopping the reaction by the addition of H2SO4 4N, a new measurement is carried out at 490 nm.
The blocking activity of the decoys can be verified in vitro in an ELISA test. […] The neutralizing ability of the decoy can be confirmed in a functional test such as the Bethesda Test (method of Kasper, [Kasper et al., 1975, Thromb. Diath. Haemorrh. 34, 875-6]).
The Inventors studied the ability of these soluble peptides to inhibit the binding of the 2C11 antibody to factor VIII in an ELISA test in vitro in the following manner: immobilization of FVIII, pre-incubation of 2C11 with the soluble peptides in the range (200 μM, 20 μM, 2 μM, 200 nM, 20 nM, 2 nM) overnight at 4° C., then incubation of this premixture on the FVIII, then development of the 2C11 antibody. The results obtained are indicated hereafter.

[3] = tested on: factor VIII; assay: Bethesda test: effect on procoagulant activity of factor VIII; type: biochemical, human; conditions: no antibody
From the text: This functional test (Kasper, C. K. & Pool, J. G. (1975) Letter: Measurement of mild factor VIII inhibitors in Bethesda units, Thromb Diath Haemorrh. 34, 875-6) consists of measuring the time necessary for a mixture composed of different coagulation factors (FIXa, FVIII, phospholipides, calcium etc.) in order to coagulate completely. The inhibiting effect of an antibody is characterized in such a test by an extension of the coagulation time, the inhibiting ability of the antibody becomes greater as the extension of the coagulation time increases. […]
The functional test followed is derived from the abovementioned test described by Kasper. […] The inhibiting activity of an antibody is read from a semi-logarithmic graph representing the correlation between the residual activity of the FVIII and the inhibiting activity.
FIG. 1 represents the effect of the 2C11 antibody on the activity of factor VIII evaluated by the Bethesda test. Factor VIII was incubated in the presence of 3.5 nM of 2C11 antibody for 2 hours at 37° C., the residual activity of factor VIII was then measured with a coagulometer, in one stage.
FIG. 2 represents the evolution of the activity of factor VIII, evaluated by the Bethesda test, in the presence of 3.5 nM of 2C11 antibody as a function of peptide concentration. […]

[4] = tested on: FVIII inhibitors in serums of hemophilia patients; assay: Reactivity of serums of hemophilia patients with inhibitors with peptide 107; type: binding, human; conditions: out of 12 serums of hemophilia patients with inhibitors; preliminary study
From the text: Thirdly, the Inventors looked at whether the neutralizing properties of peptide 107 vis-à-vis 2C11 could also be applied to other serums of hemophilia patients with inhibitors.

[5] = tested on: 2C11 antibody; assay: In vivo neutralization of 2C11 in mice deficient in FVIII given human FVIII; design: species or system mouse
Experimental: Secondly, the neutralization properties of peptide 107 were studied in vivo, using a mouse model deficient in FVIII. […] Having determined this, 2C11 antibody ([…]) incubated alone, in the presence of peptide 107, or a control peptide (650 μM and 700 μM, respectively) was injected into the tail vein of three groups of mice respectively. Thirty minutes later, the FVIII plasma count of these mice was reconstituted by the injection of 0.5 UI of human FVIII and after fifteen minutes the plasma procoagulant activity was measured.
The 2C11 antibody (16.5 nM) or a mixture containing the 2C11 antibody (16.5 nM) and peptide 107 (650 μM) or a control peptide (700 μM) was injected into the tail vein of a “knock out” mouse, deficient in factor VIII, at a rate of 2.5 μg of 2C11 antibody, 1 mg of peptide 107 and 1 mg of control peptide. After 30 minutes, 0.5 UI of human factor VIII was injected and the plasma procoagulant activity was then measured by a chromogenic test 15 minutes later.
The percentage of residual activity of factor VIII is represented on the Y-axis. Bar A represents the effect of the injection of factor VIII without prior injection of antibodies (100% of residual activity). Bar B represents the effect of the injection of the 2C11 antibody alone prior to the injection of factor VIII. […]

[6] = peptide concentration 0.002 (2 nM)
[7] = peptide concentration 0.02 (20 nM)
[8] = peptide concentration 20 (range: 20 μM)
[9] = peptide concentration 200 (range: 200 μM), pre-incubation overnight at 4° C.

Sequence	% inhibition of 2C11 binding to FVIII [2, 6]	% inhibition of 2C11 binding to FVIII [2, 7]	% inhibition of 2C11 binding to FVIII ([2]; peptide concentration 2 (2 μM))	% inhibition of 2C11 binding to FVIII [2, 8]	% inhibition of 2C11 binding to FVIII [2, 9]	IC50 ([1]; 2C11 concentration 3.5 nM)	inhibition of the 2C11 Ab/FVIII bond (in words) [2]	neutralization of the inhibiting activity of 2C11 (in words) [1]	peptide concentration for total neutralization of 2C11 inhibiting effect ([1]; 2C11 concentration 3.5 nM)	effect of peptide incubated with FVIII alone on procoagulant activity of FVIII [3]	number of patient serums reacting with the peptide [4]	procoagulant activity of the FVIII maintained ([5]; 2C11 16.7 nM + peptide 650 μM injected in tail vein, 0.5 UI human FVIII after 30 min, measured 15 min later)	neutralizing effect on 2C11 in vivo (in words) ([5]; FVIII-deficient mice, peptide 107 650 μM, control peptide 700 μM)
CSKWHNRSKRHC (Ac-CSKWHNRSKRHC; cysteine pairing not given here) [compound 105]	0%	0%	10.27%	45.04%	75.58%	–	–	effectively neutralize	–	–	–	–	–
ECGSHAWGRRCK (chain 1 Ac-ECGSHAWGRRCK; chain 2 Ac-ECGSHAWGRRCK; cysteine pairing not given here) [compound 104]	0%	0%	13.44%	30.68%	63.71%	–	–	effectively neutralize	–	–	–	–	–
KCGRWSNRSSCT (Ac-KCGRWSNRSSCT; cysteine pairing not given here) [compound 103]	0%	0%	3.47%	28.26%	62.73%	–	–	effectively neutralize	–	–	–	–	–
QCHTWSNRRSCL (Ac-QCHTWSNRRSCL; cysteine pairing not given here) [compound 108]	0%	0%	15.79%	25.99%	60.69%	–	–	effectively neutralize	–	–	–	–	–
SCHAWSNRRTCR [peptide 107]	0%	0%	37.33%	80.04%	90.48%	19 µM	the most effective	makes it possible to neutralize the effect of the 2C11 antibody	~100 µM	does not at all modify the procoagulant activity of the FVIII	2	52%	specifically neutralizes the effect of the 2C11 antibody in vivo

Further lines, with some results ahead:

% inhibition of 2C11 binding to FVIII [2, 6]	% inhibition of 2C11 binding to FVIII [2, 7]	% inhibition of 2C11 binding to FVIII ([2]; peptide concentration 2 (2 μM))	% inhibition of 2C11 binding to FVIII [2, 8]	% inhibition of 2C11 binding to FVIII [2, 9]	IC50 ([1]; 2C11 concentration 3.5 nM)	inhibition of the 2C11 Ab/FVIII bond (in words) [2]	Sequence	neutralization of the inhibiting activity of 2C11 (in words) [1]	peptide concentration for total neutralization of 2C11 inhibiting effect ([1]; 2C11 concentration 3.5 nM)	effect of peptide incubated with FVIII alone on procoagulant activity of FVIII [3]	number of patient serums reacting with the peptide [4]	procoagulant activity of the FVIII maintained ([5]; 2C11 16.7 nM + peptide 650 μM injected in tail vein, 0.5 UI human FVIII after 30 min, measured 15 min later)	neutralizing effect on 2C11 in vivo (in words) ([5]; FVIII-deficient mice, peptide 107 650 μM, control peptide 700 μM)
0%	0%	0.00%	21.99%	36.56%	–	–	CMKWSNRSSRWC (Ac-CMKWSNRSSRWC; cysteine pairing not given here) [compound 106]	effectively neutralize	–	–	–	–	–
0%	0%	12.46%	37.48%	75.05%	–	–	RCHAWSNRKSCV (Ac-RCHAWSNRKSCV; cysteine pairing not given here) [compound 109]	effectively neutralize	–	–	–	–	–
